According to ChEMBL document CHEMBL1201862, “PubChem BioAssay data set” (2004):
Activity calls are given as the source filed them.

What was measured:
cells = assay type: functional
[1] = Vero E6 cell cytotoxicity, dose response, cytotoxicity control for non-replicating M. tuberculosis project, secondary assay (AID 492998); assay type: functional, VeroE6; conditions: Vero C1008
[2] = NIH-3T3 fibroblast cytotoxicity, dose response, cytotoxicity control, cell-based, fluorescence, Alamar Blue, secondary assay (AID 2327); assay type: functional;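 also: NIH-3T3 mouse fibroblasts cultured with fluconazole at 8 µg/mL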
Vero = test: cells; assay type: functional; conditions: Chlorocebus sabaeus
[3] = THP-1 cell cytotoxicity, dose response, cytotoxicity control for non-replicating M. tuberculosis project (AID 489025); assay type: functional
[4] = growth suppression of beta-catenin-knockout colon cells, dose response, cell-based, HCT116, human colon tumor (AID 1045); assay type: functional;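 also: HCT116 colon tumor cells with beta catenin knocked out; cells exposed to compound for 60 hours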
[5] = target: T1, Heat shock factor protein 1 (Mus musculus, UniProt P38532); test: inhibition of MG132-induced HSE-luciferase signal, confirmation, cell-based, NIH3T3, luminescence, dose retest (AID 2382); assay type: functional;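 also: NIH3T3 fibroblasts with HSF1-driven luciferase reporter stressed by proteasome inhibitor MG132; luminescence from HSF1-driven luciferase expression after 8 hours of MG132 stress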
T1 sequence (P38532 whole entry): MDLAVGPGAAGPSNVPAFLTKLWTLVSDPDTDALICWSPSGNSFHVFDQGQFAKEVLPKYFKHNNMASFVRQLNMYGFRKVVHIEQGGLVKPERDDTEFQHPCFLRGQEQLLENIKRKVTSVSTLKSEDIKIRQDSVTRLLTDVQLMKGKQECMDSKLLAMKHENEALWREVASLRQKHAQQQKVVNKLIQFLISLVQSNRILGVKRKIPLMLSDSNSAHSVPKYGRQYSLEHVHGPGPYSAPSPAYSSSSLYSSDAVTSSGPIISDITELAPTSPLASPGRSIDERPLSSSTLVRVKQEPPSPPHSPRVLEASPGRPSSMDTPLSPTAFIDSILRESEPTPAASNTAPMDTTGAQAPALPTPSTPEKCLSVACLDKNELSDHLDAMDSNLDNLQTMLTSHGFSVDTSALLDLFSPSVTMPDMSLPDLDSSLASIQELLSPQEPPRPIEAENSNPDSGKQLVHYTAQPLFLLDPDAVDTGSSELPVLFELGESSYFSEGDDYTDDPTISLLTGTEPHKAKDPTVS

[6] = growth suppression of PTEN-null colon cells, dose response, cell-based, HCT116 PTEN knockout (AID 1047); assay type: functional;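 also: HCT116 colon tumor cells with PTEN knocked out; cells exposed to compound for 60 hours before readout; potency for loss of cell viability measured by luminescence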
[7] = C. albicans growth with fluconazole, confirmation, fluorescence, retest (AID 2467); assay type: functional, cell-based
[8] = A Cell Based Secondary Assay To Explore Cytotoxicity of Compounds that Sensitize Mycobacterium Tuberculosis to Beta-Lactam Antibiotics.; assay type: functional
[9] = cytotoxicity in HEK-293T cells, dose response, cytotoxicity control for TCR NF-kB inhibitor project, luminescence, T-cell screen hits (AID 489026); assay type: functional, cell-based;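 also: cells exposed to compound about 14 hours before the viability readout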
[10] = tested on: Streptococcus sp. 'group A'; test: growth inhibition of control SK(-) GAS strain, dose response, counter-screen for streptokinase expression inhibitor project, luminescence, kanamycin, BacTiterGlo, confirmation (AID 1900); assay type: functional, organism-based
Streptococcus = test: Group A Streptococcus viability loss, dose response, counter-screen for streptokinase expression inhibitor project, luminescence, BacTiterGlo (AID 1915); assay type: functional, organism-based;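 also: potency for reduction of bacterial viability or growth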
BJ [11] = test: cytotoxicity toward BJ-TERT fibroblasts, dose response, cell-based, RAS-independent, luminescence (AID 1933); assay type: functional; conditions: Homo sapiens
[12] = cytotoxicity toward DRD oncogenic fibroblasts, dose response, cell-based, non-viral oncogenic, luminescence (AID 1934); assay type: functional; conditions: Homo sapiens
BJ [13] = test: cells; assay type: functional, cell-based; conditions: Homo sapiens
BJ [14] = test: cytotoxicity toward BJ-TERT-LT-ST fibroblasts, dose response, cell-based, RAS-independent, luminescence (AID 1935); assay type: functional; conditions: Homo sapiens;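 also: BJ fibroblasts immortalized with TERT plus LT and ST oncogenes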
[15] = cytotoxicity in HEK-293T cells, dose response, cytotoxicity control for BCR NF-kB inhibitor project, luminescence, B-cell screen hits (AID 489021); assay type: functional, cell-based;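 also: HEK-293T cells carrying an NF-kB luciferase reporter; cells exposed to compound for about 14 hours before viability readout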
Estrogen receptor beta = Estrogen receptor beta (Homo sapiens, UniProt Q92731);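 also: recombinant ER-beta bound to coactivator SRC1 peptide in presence of estradiol agonist; inhibitors block coactivator peptide binding and lower the FRET signal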
Large T antigen = Large T antigen (Simian virus 40, UniProt P03070); assay type: functional, Betapolyomavirus macacae;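 also: Confirmatory-stage PubChem screen for compounds that inhibit SV40 T antigen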
Estrogen receptor = target: T2, Estrogen receptor (Homo sapiens, UniProt P03372);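 also: potency for inhibiting coactivator peptide recruitment to the receptor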
T2 sequence (P03372 whole entry): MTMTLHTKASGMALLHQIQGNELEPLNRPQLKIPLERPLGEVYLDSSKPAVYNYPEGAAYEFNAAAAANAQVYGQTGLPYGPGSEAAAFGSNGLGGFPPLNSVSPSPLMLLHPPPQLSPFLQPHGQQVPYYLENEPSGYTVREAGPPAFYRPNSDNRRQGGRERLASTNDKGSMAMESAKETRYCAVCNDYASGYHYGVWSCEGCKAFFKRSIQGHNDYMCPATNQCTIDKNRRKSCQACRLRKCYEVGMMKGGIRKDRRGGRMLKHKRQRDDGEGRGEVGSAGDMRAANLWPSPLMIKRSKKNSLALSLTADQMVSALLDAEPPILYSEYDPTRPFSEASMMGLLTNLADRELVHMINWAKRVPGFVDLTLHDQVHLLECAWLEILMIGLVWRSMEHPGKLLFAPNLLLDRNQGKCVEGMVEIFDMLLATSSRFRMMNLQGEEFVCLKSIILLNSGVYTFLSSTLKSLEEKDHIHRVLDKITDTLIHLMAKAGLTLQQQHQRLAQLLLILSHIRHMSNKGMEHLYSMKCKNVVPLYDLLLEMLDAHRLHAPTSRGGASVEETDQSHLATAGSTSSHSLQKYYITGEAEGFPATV

Sequence of Large T antigen (P03070 whole entry): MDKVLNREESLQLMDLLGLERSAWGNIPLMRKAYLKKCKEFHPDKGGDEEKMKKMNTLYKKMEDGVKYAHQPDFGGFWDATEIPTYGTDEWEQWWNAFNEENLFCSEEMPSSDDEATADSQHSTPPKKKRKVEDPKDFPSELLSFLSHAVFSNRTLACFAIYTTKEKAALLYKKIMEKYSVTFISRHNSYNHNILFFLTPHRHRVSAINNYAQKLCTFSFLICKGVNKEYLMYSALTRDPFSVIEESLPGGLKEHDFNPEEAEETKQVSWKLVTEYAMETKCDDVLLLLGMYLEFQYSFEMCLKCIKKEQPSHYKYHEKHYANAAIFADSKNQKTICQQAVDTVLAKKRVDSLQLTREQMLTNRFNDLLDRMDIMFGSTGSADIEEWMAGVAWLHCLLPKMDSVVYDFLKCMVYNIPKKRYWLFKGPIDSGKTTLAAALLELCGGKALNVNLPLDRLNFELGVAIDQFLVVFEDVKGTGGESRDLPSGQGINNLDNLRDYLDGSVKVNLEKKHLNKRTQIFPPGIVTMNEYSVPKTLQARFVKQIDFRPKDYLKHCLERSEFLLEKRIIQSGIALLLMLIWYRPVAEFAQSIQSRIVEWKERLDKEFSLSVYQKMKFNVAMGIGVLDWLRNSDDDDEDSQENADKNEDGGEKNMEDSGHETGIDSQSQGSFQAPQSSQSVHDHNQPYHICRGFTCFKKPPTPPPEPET
Sequence of Estrogen receptor beta (Q92731 whole entry): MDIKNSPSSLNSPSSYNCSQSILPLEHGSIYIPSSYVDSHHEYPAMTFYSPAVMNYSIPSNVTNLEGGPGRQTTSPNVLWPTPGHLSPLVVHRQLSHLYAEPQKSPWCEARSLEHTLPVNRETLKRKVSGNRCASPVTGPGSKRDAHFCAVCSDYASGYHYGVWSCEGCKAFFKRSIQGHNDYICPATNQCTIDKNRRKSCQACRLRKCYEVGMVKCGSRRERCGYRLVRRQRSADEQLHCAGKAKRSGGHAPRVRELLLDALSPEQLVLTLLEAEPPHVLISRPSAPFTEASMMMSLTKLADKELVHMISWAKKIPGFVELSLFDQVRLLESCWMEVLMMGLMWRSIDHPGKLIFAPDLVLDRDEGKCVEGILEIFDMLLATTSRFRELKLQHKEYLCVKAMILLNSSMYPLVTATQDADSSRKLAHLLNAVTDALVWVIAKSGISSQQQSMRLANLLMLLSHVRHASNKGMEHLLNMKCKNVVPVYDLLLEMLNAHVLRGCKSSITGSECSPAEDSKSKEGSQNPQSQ

**Q.** With `O=C1Nc2ccccc2/C1=C/C(=O)c1cccs1` as the molecule, how does the IC50 (cells) read?
**A.** Its IC50 is 8.52 µM (active).

**Q.** What about the CC50 [1] of the same molecule?
**A.** The CC50 was 14.4 µM (active).

**Q.** And the EC50 [2]?
**A.** The EC50 was > 150 µM (inactive).

**Q.** What about the CC50 (Vero) of the same molecule?
**A.** Its CC50 is 17.6 µM (active).

**Q.** And the CC50 [3]?
**A.** Its CC50 is 21.1 µM (active).

**Q.** What about the EC50 [4] of the same molecule?
**A.** Its EC50 is 5.7 µM (active).

**Q.** And the EC50 [5]?
**A.** Its EC50 is > 195 µM (not active).

**Q.** What about the EC50 [6] of the same molecule?
**A.** The EC50 was 7.47 µM (active).

**Q.** And the EC50 [7]?
**A.** Its EC50 is 1.75 µM (active).

**Q.** For `CCOC(=O)c1cc(-c2ccc(C)cc2)n(CCC(=O)N2CCN(c3ccccn3)CC2)c1C`, which CC50 [8] is on record?
**A.** The CC50 was > 40 µM (active).

**Q.** With `COc1ccccc1CNS(=O)(=O)c1ccc(-c2cnc(C3CC3)o2)cc1` as the molecule, how does the IC50 [9] read?
**A.** Its IC50 is > 80 µM (inactive).

**Q.** Which results are given for `CC(C)(C)c1ccc(C(=O)Nc2nnc(C3=COCCO3)o2)cc1`?
**A.** IC50 (cells): 2.11 µM (active); CC50 [1]: > 20 µM (active); EC50 [10]: 0.429 µM (active); EC50 (Streptococcus): 9.1 µM (active); CC50 [3]: 34.2 µM (active)

**Q.** Which IC50 [9] does the source give for `COc1ccccc1CNS(=O)(=O)c1ccc(-c2cc(C)no2)cc1` here?
**A.** Its IC50 is 79.8 µM (inactive).

**Q.** And the EC50 (BJ [11])?
**A.** Its EC50 is 1.92 µM (active).

**Q.** What about the EC50 [12] of the same molecule?
**A.** Its EC50 is 1.34 µM (active).

**Q.** And the EC50 (BJ [13])?
**A.** The EC50 was 53.8 µM (inconclusive).

**Q.** And the EC50 (BJ [14])?
**A.** The EC50 was 0.83 µM (active).

**Q.** With `Cc1cc(C)cc(OCc2nnc(SCC(=O)c3ccccc3)o2)c1` as the molecule, how does the IC50 [15] read?
**A.** Its IC50 is > 80 µM (inactive).

**Q.** For `Oc1ccc(/C=N/c2ccc(N3CCOCC3)cc2)c(O)c1`, which IC50 (Estrogen receptor beta) is on record?
**A.** Its IC50 is 14.4 µM (active).

**Q.** What about the IC50 (Large T antigen) of the same molecule?
**A.** The IC50 was 12.9 µM (active).

**Q.** And the IC50 (Estrogen receptor)?
**A.** Its IC50 is 30.4 µM (not active).

**Q.** Which results are given for `COc1cc2c(=O)n(Cc3ccco3)c(=O)n(CC(=O)c3cccc(Br)c3)c2cc1OC`?
**A.** CC50 [8]: 22.2 µM (active); EC50 [4]: 9.71 µM (active); EC50 [6]: 9.13 µM (active)
